Assay results published in US20050288185A1, “Substituted phenyluracils” (priority 2002, published 2005).

What was measured:
[1] = system: weeds; test: Pre-emergence test (Example A), activity against weeds; format: in vivo; conditions: soil sprayed 24 hours after sowing, rated after three weeks
Description: (§1) Solvent: 5 parts by weight of acetone
(§2) Emulsifier: 1 part by weight of alkylaryl polyglycol ether
Seeds of the test plants are sown in normal soil.
(§3) After three weeks, the degree of damage to the plants is rated in % damage in comparison to the development of the untreated control.

[2] = log P determination by HPLC (reversed-phase C18), EEC Directive 79/831 Annex V.A8; format: physicochemical; conditions: reversed-phase C18 HPLC column; pH 2.3; HPLC reversed-phase C18, 43° C.
Method: The log P values given in the table were determined in accordance with EEC Directive 79/831 Annex V.A8 by HPLC (High Performance Liquid Chromatography) using a reversed-phase column (C 18). Temperature: 43° C. (a) Mobile phases for the determination in the acidic range: 0.1% aqueous phosphoric acetonitrile; linear gradient from 10% acetonitrile to 90% acetonitrile—the sponding measurement results in Table 1 are marked ^a). (b) Mobile phases for the determination in the neutral range: 0.01 molar aqueous phosphate buffer solution, acetonitrile; linear gradient from 10% acetonitrile to 90% acetonitrile—the corresponding measurement results in Table 1 are marked^b). Calibration was carried out using unbranched alkan-2-ones (with 3 to 16 carbon atoms) with known log P values (determination of the log P values by the retention times using linear interpolation between two successive alkanones).

[3] = system: weeds; test: Post-emergence test (Example B), activity against weeds; format: in vivo; conditions: test plants 5-15 cm sprayed, rated after three weeks
Description: as §1, §2, §3

chromatographic logP [2] | Compound | activity against weeds (degree of damage) [1] | activity against weeds (degree of damage) [3]
3.34 | COC(=O)c1occc1COc1cc(-n2c(=O)cc(C(F)(F)F)n(C)c2=O)c(F)cc1Br [Example 2, methyl 3-[2-bromo-5-(2,6-dioxo-3-methyl-4-trifluoromethyl-3,6-dihydro-2H-pyrimidin-1-yl)-4-fluorophenoxymethyl]furan-2-carboxylate] | very strong activity against weeds | very strong activity against weeds
3 | COC(=O)c1ccoc1COc1cc(-n2c(=O)cc(C(F)(F)F)n(N)c2=O)c(F)cc1Br [Example 3, methyl 2-[2-bromo-5-(3-amino-2,6-dioxo-4-trifluoromethyl-3,6-dihydro-2H-pyrimidin-1-yl)-4-fluorophenoxymethyl]furan-3-carboxylate] | very strong activity against weeds | very strong activity against weeds
